Experimental data reported in US11919901B2 (Syndax Pharmaceuticals, Inc., priority 2021, dated 2024).

The compounds below were run on MV4-11 cells (assay: Cell proliferation assay MV4;11 (CellTiter-Glo, 72 hours)). Conditions: Homo sapiens; MV4;11 leukemia cell line, 72 hours; read-out: MV4; 11 IC50.
Format: cell-based
In short: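 MV4-11 cells (MLL1-AF4 fusion) exposed 72 h at 37 °C to 8 compound concentrations, final 0.632–2000 nM. Viability by CellTiter-Glo luminescence as % of vehicle RLU; % max inhibition = 100 − viability at top concentration.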
Compound `CC(C)N(C(=O)c1cc(F)ccc1Oc1cncnc1N1CC2(CCN(C[C@@H]3CC[C@@H](NS(=O)(=O)C4COC4)CO3)CC2)C1)C1CC(F)(F)C1` [Example 115, N-(3,3-Difluorocyclobutyl)-5-fluoro-N-isopropyl-2-((4-(7-(((2S,5R)-5-(oxetane-3-sulfonamido)tetrahydro-2H-pyran-2-yl)methyl)-2,7-diazaspiro[3.5]nonan-2-yl)pyrimidin-5-yl)oxy)benzamide] has an IC50 of under 100 nM. In the case of `CCS(=O)(=O)N[C@@H]1CC[C@@H](CN2CCC3(CC2)CN(c2ncncc2Oc2ccc(F)cc2C(=O)N(C(C)C)C2CC4(COC4)C2)C3)OC1` [Example 252, 2-((4-(7-(((2S,5R)-5-(Ethylsulfonamido)tetrahydro-2H-pyran-2-yl)methyl)-2,7-diazaspiro[3.5]nonan-2-yl)pyrimidin-5-yl)oxy)-5-fluoro-N-isopropyl-N-(2-oxaspiro[3.3]heptan-6-yl)benzamide], the IC50 is reported as under 100 nM. For `CCN(CC)S(=O)(=O)N[C@@H]1CC[C@@H](CN2CCC3(CC2)CN(c2ncncc2Oc2ccc(F)cc2C(=O)N(CC(F)F)C(C)C)C3)OC1` [Example 97, 2-((4-(7-(((2S,5R)-5-((N,N-Diethylsulfamoyl)amino)tetrahydro-2H-pyran-2-yl)methyl)-2,7-diazaspiro[3.5]nonan-2-yl)pyrimidin-5-yl)oxy)-N-(2,2-difluoroethyl)-5-fluoro-N-isopropylbenzamide], the IC50 was under 100 nM. Compound `CC(C)N(CC(F)(F)F)C(=O)c1cc(F)ccc1Oc1cncnc1N1CC2(CCN(C[C@@H]3CC[C@@H](NS(=O)(=O)N4CCOCC4)CO3)CC2)C1` [Example 108, 5-Fluoro-N-isopropyl-2-((4-(7-(((2S,5R)-5-(morpholine-4-sulfonamido)tetrahydro-2H-pyran-2-yl)methyl)-2,7-diazaspiro[3.5]nonan-2-yl)pyrimidin-5-yl)oxy)-N-(2,2,2-trifluoroethyl)benzamide] has an IC50 of under 100 nM. Compound `CCS(=O)(=O)N[C@@H]1CC[C@@H](CN2CCC3(CC2)CN(c2ncncc2Oc2ccc(F)cc2C(=O)N(CCC#N)C(C)C)C3)OC1` [Example 43, N-(2-Cyanoethyl)-2-((4-(7-(((2S,5R)-5-(ethylsulfonamido)tetrahydro-2H-pyran-2-yl)methyl)-2,7-diazaspiro[3.5]nonan-2-yl)pyrimidin-5-yl)oxy)-5-fluoro-N-isopropylbenzamide] has an IC50 of 100 to 1000 nM. In the case of `C[C@@H]1COC[C@@H](C)N1C(=O)c1cc(F)ccc1Oc1cncnc1N1CC2(CCN(C[C@@H]3CC[C@@H](NS(=O)(=O)c4ccccc4)CO3)CC2)C1` [Example 120, N-((3R,6S)-6-((2-(5-(2-((3R,5R)-3,5-Dimethylmorpholine-4-carbonyl)-4-fluorophenoxy)pyrimidin-4-yl)-2,7-diazaspiro[3.5]nonan-7-yl)methyl)tetrahydro-2H-pyran-3-yl)benzenesulfonamide], the IC50 is reported as under 100 nM. Work on `CCNS(=O)(=O)N[C@@H]1CC[C@@H](CN2CCC3(CC2)CN(c2ncncc2Oc2ccc(F)cc2C(=O)N(C(C)C)C2CC2)C3)OC1` [Example 145, N-Cyclopropyl-2-((4-(7-(((2S,5R)-5-((N-ethylsulfamoyl)amino)tetrahydro-2H-pyran-2-yl)methyl)-2,7-diazaspiro[3.5]nonan-2-yl)pyrimidin-5-yl)oxy)-5-fluoro-N-isopropylbenzamide] yielded an IC50 of under 100 nM. Compound `CCNC(=O)N[C@@H]1CC[C@@H](CN2CCC3(CC2)CN(c2ncncc2Oc2ccc(F)cc2C(=O)N(CC)C(C)C)C3)OC1` [Example 39, N-Ethyl-2-((4-(7-(((2S,5R)-5-(3-ethylureido)tetrahydro-2H-pyran-2-yl)methyl)-2,7-diazaspiro[3.5]nonan-2-yl)pyrimidin-5-yl)oxy)-5-fluoro-N-isopropylbenzamide] has an IC50 of under 100 nM. With `CCS(=O)(=O)N[C@@H]1CC[C@@H](CN2CCC3(CC2)CN(c2ncncc2Oc2ccc(F)cc2C(=O)N(CCOC)C(C)C)C3)OC1` [Example 35, 2-((4-(7-(((2S,5R)-5-(Ethylsulfonamido)tetrahydro-2H-pyran-2-yl)methyl)-2,7-diazaspiro[3.5]nonan-2-yl)pyrimidin-5-yl)oxy)-5-fluoro-N-isopropyl-N-(2-methoxyethyl)benzamide] the IC50 was under 100 nM. In the case of `CC(C)N(CC(F)(F)F)C(=O)c1cc(F)ccc1Oc1cncnc1N1CC2(CCN(C[C@@H]3CC[C@@H](NS(=O)(=O)C(C)C)CO3)CC2)C1` [Example 109, 5-Fluoro-N-isopropyl-2-((4-(7-(((2S,5R)-5-((1-methylethyl)sulfonamido)tetrahydro-2H-pyran-2-yl)methyl)-2,7-diazaspiro[3.5]nonan-2-yl)pyrimidin-5-yl)oxy)-N-(2,2,2-trifluoroethyl)benzamide], the IC50 is reported as under 100 nM. Work on `CCS(=O)(=O)N[C@@H]1CC[C@@H](CN2CCC3(CC2)CN(c2ncnnc2Oc2ccc(F)cc2C(=O)N(C(C)C)C(C)C)C3)OC1` [Example 195, 2-((5-(7-(((2S,5R)-5-(Ethylsulfonamido)tetrahydro-2H-pyran-2-yl)methyl)-2,7-diazaspiro[3.5]nonan-2-yl)-1,2,4-triazin-6-yl)oxy)-5-fluoro-N,N-diisopropylbenzamide] yielded an IC50 of under 100 nM. `CCN(C(=O)c1cc(F)ccc1Oc1cncnc1N1CC2(CCN(C[C@@H]3CC[C@@H](NS(=O)(=O)NC)CO3)CC2)C1)C(C)C` [Example 76, N-Ethyl-5-fluoro-N-isopropyl-2-((4-(7-(((2S,5R)-5-((N-methylsulfamoyl)amino)tetrahydro-2H-pyran-2-yl)methyl)-2,7-diazaspiro[3.5]nonan-2-yl)pyrimidin-5-yl)oxy)benzamide] gave an IC50 of under 100 nM. `CCNS(=O)(=O)N[C@@H]1CC[C@@H](CN2CCC3(CC2)CN(c2ncncc2Oc2ccc(F)cc2C(=O)N(C(C)C)[C@@H]2CCOC2)C3)OC1` [Example 172, 2-((4-(7-(((2S,5R)-5-((N-ethylsulfamoyl)amino)tetrahydro-2H-pyran-2-yl)methyl)-2,7-diazaspiro[3.5]nonan-2-yl)pyrimidin-5-yl)oxy)-5-fluoro-N-isopropyl-N-((R)-tetrahydrofuran-3-yl)benzamide] was tested, and the IC50 was under 100 nM. Compound `C[C@@H]1COC[C@@H](C)N1C(=O)c1cc(F)ccc1Oc1cncnc1N1CC2(CCN(C[C@@H]3CC[C@@H](NS(=O)(=O)NC4CC4)CO3)CC2)C1` [Example 159, N-[(3R,6S)-6-{[2-(5-{2-[(3R,5R)-3,5-Dimethylmorpholine-4-carbonyl]-4-fluorophenoxy}pyrimidin-4-yl)-2,7-diazaspiro[3.5]nonan-7-yl]methyl}oxan-3-yl](cyclopropylamino)sulfonamide] has an IC50 of under 100 nM. For `CC(C)N(CC(F)F)C(=O)c1cc(F)ccc1Oc1cncnc1N1CC2(CCN(C[C@@H]3CC[C@@H](NS(=O)(=O)C4CC4)CO3)CC2)C1` [Example 47, 2-((4-(7-(((2S,5R)-5-(Cyclopropanesulfonamido)tetrahydro-2H-pyran-2-yl)methyl)-2,7-diazaspiro[3.5]nonan-2-yl)pyrimidin-5-yl)oxy)-N-(2,2-difluoroethyl)-5-fluoro-N-isopropylbenzamide], the IC50 was under 100 nM. `CCN(C(=O)c1cc(F)ccc1Oc1cncnc1N1CC2(CCN(C[C@@H]3CC[C@@H](NS(=O)(=O)C4CCC4)CO3)CC2)C1)C(C)C` [Example 6, 2-((4-(7-(((2S,5R)-5-(Cyclobutanesulfonamido)tetrahydro-2H-pyran-2-yl)methyl)-2,7-diazaspiro[3.5]nonan-2-yl)pyrimidin-5-yl)oxy)-N-ethyl-5-fluoro-N-isopropylbenzamide] gave an IC50 of under 100 nM. For `CC(C)N(CC(F)F)C(=O)c1cc(F)ccc1Oc1nncnc1N1CC2(CCN(C[C@@H]3CC[C@@H](NS(=O)(=O)C4CC4)CO3)CC2)C1` [Example 186, 2-((5-(7-(((2S,5R)-5-(Cyclopropanesulfonamido)tetrahydro-2H-pyran-2-yl)methyl)-2,7-diazaspiro[3.5]nonan-2-yl)-1,2,4-triazin-6-yl)oxy)-N-(2,2-difluoroethyl)-5-fluoro-N-isopropylbenzamide], the IC50 was under 100 nM. For `CCN(C(=O)c1cc(F)ccc1Oc1cncnc1N1CC2(CCN(C[C@@H]3CC[C@@H](NS(=O)(=O)CC4CC4)CO3)CC2)C1)C(C)C` [Example 7, 2-((4-(7-(((2S,5R)-5-((Cyclopropylmethyl)sulfonamido)tetrahydro-2H-pyran-2-yl)methyl)-2,7-diazaspiro[3.5]nonan-2-yl)pyrimidin-5-yl)oxy)-N-ethyl-5-fluoro-N-isopropylbenzamide], the IC50 was under 100 nM. `CC(C)S(=O)(=O)N[C@@H]1CC[C@@H](CN2CCC3(CC2)CN(c2ncncc2Oc2ccc(F)cc2C(=O)N2[C@H](C)COC[C@H]2C)C3)OC1` [Example 30, N-((3R,6S)-6-((2-(5-(2-((3R,5R)-3,5-Dimethylmorpholine-4-carbonyl)-4-fluorophenoxy)pyrimidin-4-yl)-2,7-diazaspiro[3.5]nonan-7-yl)methyl)tetrahydro-2H-pyran-3-yl)propane-2-sulfonamide] showed an IC50 of under 100 nM. Work on `CC(C)N(C(=O)c1cc(F)ccc1Oc1cncnc1N1CC2(CCN(C[C@@H]3CC[C@@H](NS(=O)(=O)C4CC4)CO3)CC2)C1)C1CC(F)(F)C1` [Example 111, 2-((4-(7-(((2S,5R)-5-(Cyclopropanesulfonamido)tetrahydro-2H-pyran-2-yl)methyl)-2,7-diazaspiro[3.5]nonan-2-yl)pyrimidin-5-yl)oxy)-N-(3,3-difluorocyclobutyl)-5-fluoro-N-isopropylbenzamide] yielded an IC50 of under 100 nM. In the case of `CCN(C(=O)c1cc(F)ccc1Oc1cncnc1N1CC2(CCN(C[C@@H]3CC[C@@H](NS(=O)(=O)c4ccccc4C)CO3)CC2)C1)C(C)C` [Example 56, N-Ethyl-5-fluoro-N-isopropyl-2-((4-(7-(((2S,5R)-5-((2-methylphenyl)sulfonamido)tetrahydro-2H-pyran-2-yl)methyl)-2,7-diazaspiro[3.5]nonan-2-yl)pyrimidin-5-yl)oxy)benzamide], the IC50 is reported as under 100 nM. Work on `CNS(=O)(=O)N[C@@H]1CC[C@@H](CN2CCC3(CC2)CN(c2ncncc2Oc2ccc(F)cc2C(=O)N(CC(F)F)C(C)C)C3)OC1` [Example 102, N-(2,2-Difluoroethyl)-5-fluoro-N-isopropyl-2-((4-(7-(((2S,5R)-5-((N-methylsulfamoyl)amino)tetrahydro-2H-pyran-2-yl)methyl)-2,7-diazaspiro[3.5]nonan-2-yl)pyrimidin-5-yl)oxy)benzamide] yielded an IC50 of under 100 nM.
